Data from patent publication US6297230A, “Cyanoaziridines for treating cancer” (priority 2000, dated 2001).
pIC50: −log10 of the molar value. Converted amounts (≈) assume the structure as drawn. Read-outs that look alike come from different tables or passages of the source.

Key:
[1] = test system: L-1210 leukemia cells (sensitive); assay: MTT growth inhibition, sensitive L-1210 leukemia cells; type: cell-based, mouse; conditions: Mus musculus, L1210, 192 h
Protocol: Tumors are disaggregated into single cell suspensions using mechanical, hypoosmotic, and/or enzymatic (trypsin) methods. The cells are plated at a concentration of 3-5×10^4 per […] well into plastic 96-well plates. Growth medium containing 5-10% (vol/vol) heat-inactivated fetal bovine serum and penicillin/streptomycin (both […]) are added prior to incubation at 37° C. for 6 days. Afterwards the medium containing the drug is removed, the cells are centrifuged in fresh medium or phosphate-buffered saline (pH 7.4). A tetrazolium dye, […]-2,5-diphenyl tetrazolium (MTT), is then added. (Mossman, T., J Immunol 65:55-63, 1983.) This dye forms a colored formazan product upon activation by mitochondrial reductases in viable cells. Typically, the formazan product is solubilized in acid-propanol or DMSO. The intensity of the color is proportional to viable cell numbers and this is quantitated by spectrophotometric absorbance at 570 nm on a micro ELISA plate reader. The results are calibrated in % control absorbance from untreated tumor cells. (Alley, et al., Cancer Res 48:589-601, 1988.) […]
Murine L-1210 Leukemia Cells were first described by Law, et al. from a female DBA/2 mouse exposed to topical methylcholanthrene. (Law, et al., J Natl Cancer Inst 10:179-192, 1949.) The cells represent a lymphocytic lineage and are highly tumorigenic in syngeneic DBA/2 mice, producing lethality typically 10-14 days after inoculation. This cell line has been used extensively to characterize the antitumor activity of chemotherapeutic agents. (Goldin, et al., Cancer Res (Cancer Chemotherapy Screening Data IX) 21:27-92, 1961.) The L-1210 cells have a model 40-41 chromosomes and a very high plating efficiency in suspension cultures in vitro.
(§1) *Drug continuously present for 8 days; IC50 measured by MTT dye

[2] = test system: L-1210 MDR leukemia cells; assay: MTT growth inhibition, multidrug-resistant L-1210 leukemia cells; type: cell-based, mouse; conditions: for IC50: Mus musculus, L1210, 192 h
Protocol: (§2) Tumors are disaggregated into single cell suspensions using mechanical, hypoosmotic, and/or enzymatic (trypsin) methods. The cells are plated at a concentration of 3-5×10^4 per […] well into plastic 96-well plates. Growth medium containing 5-10% (vol/vol) heat-inactivated fetal bovine serum and penicillin/streptomycin (both […]) are added prior to incubation at 37° C. for 6 days. Afterwards the medium containing the drug is removed, the cells are centrifuged in fresh medium or phosphate-buffered saline (pH 7.4). A tetrazolium dye, […]-2,5-diphenyl tetrazolium (MTT), is then added. (Mossman, T., J Immunol 65:55-63, 1983.) This dye forms a colored formazan product upon activation by mitochondrial reductases in viable cells. Typically, the formazan product is solubilized in acid-propanol or DMSO. The intensity of the color is proportional to viable cell numbers and this is quantitated by spectrophotometric absorbance at 570 nm on a micro ELISA plate reader. The results are calibrated in % control absorbance from untreated tumor cells. (Alley, et al., Cancer Res 48:589-601, 1988.)
In addition, the imexon analogs have also been tested in a multidrug-resistant (MDR) mouse L-1210 leukemia cell line.
L-1210 MDR Cells represent a multidrug-resistant cell line developed for resistance to the alkylating agent mitomycin C. (Dorr, et al., Biochem Pharmacol 36(19):3115-3120, 1987.) This cell line has the same general growth characteristics of the parental line, but is cross-resistant to numerous natural-product based anticancer agents. This includes anthracyclines such as doxorubicin (Adriamycin®) and vinca alkaloids such as vincristine or vinblastine.
as §1

8226/S myeloma cells = assay: MTT growth inhibition, parental 8226 myeloma cells; type: cell-based, human
Protocol: (§3) Microculture Tetrazolium (MTT) Assay for Tumor Cells
as §2
(§4) The following unpublished studies were performed in vitro to develop and characterize a human myeloma cell line with resistance to imexon-induced cytotoxicity. The original (parental) 8226 cell line was developed by Matsuoka, et al. (Matsuoka, et al., Proc Soc Exp Biol Med 125:1246-1250, 1967). It is a lymphoblastoid cell line which stains for lambda light immunoglobulin production. It grows in vitro in suspension culture (non-adherent) and forms tumors when injected into SCID mice. (Skehan, et al., J Natl Cancer Inst 82:1107-1112, 1990.)
(§5) One exciting feature of our novel compounds is, that they work on imexon-resistant cells. An imexon-resistant 8226 myeloma cell line was selected by continuously exposing cells to gradually increasing concentrations of imexon up to 3.25 mg/mL. This cell line has slightly longer cell doubling time than 8226 sensitive cells (24 vs 20 hours). […] The dose response curve for imexon continuous exposure was determined using MTT assay. Each data point represents the mean of three experiments performed in 8 replicates.
(§6) We compared IC50 concentrations and there is a 4-fold resistance observed for the 8226/I-R cell line when the cells were continuously exposed to imexon for […] at 37° C. The degree of resistance was relatively unstable in the absence of the drug, with the resistant cells losing substantial resistance when maintained in imexon-free medium for 20 weeks (FIG. 2).
(§7) IC50 was measured by MTT assay. IC50 refer to the concentration by drug that results in 50% growth inhibition. A minimum of 2 assays were performed for each drug following 250 mg/mL imexon is equivalent to 6.5 cGy radiation in sensitive cells.
(§8) Using the colorimetric microculture tetrazolium (MTT) assay, imexon and 25-related analogs were studied for tumor growth inhibition in vitro. Imexon-induced DNA single strand breaks were assessed by alkaline elution. Cells were exposed to imexon for 1 hour prior to start of experiment. The fraction of ^14 C-labeled DNA retained on the filter is plotted against the time of elution. The cells included parental 8226 myeloma cells and the 8226 imexon-resistant cells exposed to drug (imexon or analog) continuously for 10 days at 37° C. At the end of the exposure period, the cells were analyzed for viability using the formazan-forming tetrazolium dye (MTT) assay.

8226/I-R myeloma cells = assay: MTT growth inhibition, imexon-resistant 8226 myeloma cells; type: cell-based, human; conditions: for Fold Resistance of IC50 R/IC50 's: imexon-resistant vs sensitive 8226; for Cross-resistance of imexon-resistant cells: 8226 imexon-resistant cells
Protocol: as §3, §2, §4, §5, §6, §7, §8

[3] = test system: OVCAR-3 ovarian carcinoma cells; conditions: clinically relevant concentrations in vitro; cited from earlier work
WiDr MITOX cells = conditions: cited from earlier work
[4] = test system: L-1210 MDR leukemia cells; conditions: cited from earlier work
[5] = Homo sapiens, Table 5, Sensitive (parental) 8226, read-out: IC50
[6] = Homo sapiens, Table 5, imexon-resistant 8226, read-out: IC50
[7] = Homo sapiens, 8226/S, MTT, read-out: IC50
[8] = Homo sapiens, 8226/I-R, MTT, read-out: IC50

## N#CC1CN1C(=O)Nc1ccc(Cl)c(Cl)c1 (centres unmarked) [AMP 408, 2-Cyanoaziridine-1-[N-(3,4-dichlorophenyl)]carboxamide]
[1]; Sensitive L-1210, drug continuously present 8 days, read-out: IC50
  IC50: 0.7 µg/mL (≈ 2.73 µM)
[2]; L-1210 MDR vs sensitive, 11520 min
  Fold Resistance of IC50 's (MDR/S): 2.7
[2]; MDR L-1210, drug continuously present 8 days, read-out: IC50
  IC50: 1.9 µg/mL (≈ 7.42 µM)
8226/S myeloma cells; [5]
  IC50: 0.27 µg/mL
8226/S myeloma cells; compared with imexon
  Enhanced potency: decrease in IC50 against myeloma cell growth: > 40%
8226/I-R myeloma cells; [6]
  IC50: 0.68 µg/mL
8226/I-R myeloma cells; Table 5
  Fold Resistance of IC50 R/IC50 's: 2.5

## N#CC1CN1C(N)=O (centres unmarked) [AMP 409, 2-cyanoaziridine-1-carboxamide, reference compound]
[1]
  IC50: > 10 µg/mL
[2]
  IC50: > 10 µg/mL
8226/S myeloma cells; [5]
  IC50: 32 µg/mL
8226/I-R myeloma cells; [6]
  IC50: 48 µg/mL
8226/I-R myeloma cells; Table 5
  Fold Resistance of IC50 R/IC50 's: 1.5

## N.N.O=C([O-])C1(C(=O)[O-])CCC1.[Pt+2] [Carboplatin, reference compound]
8226/S myeloma cells; 8226/S, MTT, read-out: IC50
  pIC50: 5.01
8226/I-R myeloma cells; 8226/I-R, MTT, read-out: IC50
  pIC50: 4.80
8226/I-R myeloma cells; MTT
  Cross-resistance of imexon-resistant cells: partial cross-resistance
8226/I-R myeloma cells; Table 4, 8226/I-R vs 8226/S
  Fold Resistance (IC50 resistant cells/IC50 sensitive cells): 1.65

## N.N.[Cl][Pt][Cl] [Cisplatin, reference compound]
[3]
  Resistance of OVCAR-3: resistant in vitro to clinically relevant concentrations
8226/S myeloma cells; 8226/S, MTT, read-out: IC50
  pIC50: 5.96
8226/I-R myeloma cells; 8226/I-R, MTT, read-out: IC50
  pIC50: 5.70
8226/I-R myeloma cells; MTT
  Cross-resistance of imexon-resistant cells: partial cross-resistance
8226/I-R myeloma cells; Table 4, 8226/I-R vs 8226/S
  Fold Resistance (IC50 resistant cells/IC50 sensitive cells): 1.85

## N[C@@H](Cc1ccc(N(CCCl)CCCl)cc1)C(=O)O [Melphalan, reference compound]
[3]
  Resistance of OVCAR-3: resistant in vitro to clinically relevant concentrations
8226/S myeloma cells; Homo sapiens
  pIC50: 7.21
8226/I-R myeloma cells; Homo sapiens
  pIC50: 5.28
8226/I-R myeloma cells; Table 4, 8226/I-R vs 8226/S
  Fold Resistance (IC50 resistant cells/IC50 sensitive cells): 0.81

## CO[C@@]12[C@H](COC(N)=O)C3=C(C(=O)C(C)=C(N)C3=O)N1C[C@@H]1N[C@@H]12 [Mitomycin C, reference compound]
8226/S myeloma cells; [7]
  pIC50: 7.18
8226/I-R myeloma cells; MTT
  Cross-resistance of imexon-resistant cells: partial resistance
8226/I-R myeloma cells; [8]
  pIC50: 7.00
8226/I-R myeloma cells; human, 8226 myeloma cells
  Fold Resistance (IC50 resistant cells/IC50 sensitive cells): 1.50

## CC[C@]1(O)C[C@H]2CN(CCc3c([nH]c4ccccc34)[C@@](C(=O)OC)(c3cc4c(cc3OC)N(C=O)[C@H]3[C@@](O)(C(=O)OC)[C@H](OC(C)=O)[C@]5(CC)C=CCN6CC[C@]43[C@@H]65)C2)C1 [Vincristine, reference compound]
WiDr MITOX cells
  Fold resistance of WiDr MITOX cells: 2 fold
8226/S myeloma cells; [7]
  pIC50: 8.55
8226/I-R myeloma cells; MTT
  Cross-resistance of imexon-resistant cells: remains sensitive
8226/I-R myeloma cells; [8]
  pIC50: 8.62
8226/I-R myeloma cells; Table 4, 8226/I-R vs 8226/S
  Fold Resistance (IC50 resistant cells/IC50 sensitive cells): 0.88
[4]
  Cross-resistance of L-1210 MDR: cross-resistant

## O=C1c2c(O)ccc(O)c2C(=O)c2c(NCCNCCO)ccc(NCCNCCO)c21 [mitoxantrone]
WiDr MITOX cells
  Fold resistance of WiDr MITOX cells: 21 fold

## CC[C@]1(O)C[C@@H]2CN(CCc3c([nH]c4ccccc34)[C@@](C(=O)OC)(c3cc4c(cc3OC)N(C)[C@H]3[C@@](O)(C(=O)OC)[C@H](OC(C)=O)[C@]5(CC)C=CCN6CC[C@]43[C@@H]65)C2)C1 [vinblastine]
[4]
  Cross-resistance of L-1210 MDR: cross-resistant

## Bleomycin [reference compound]
8226/S myeloma cells; 8226/S, MTT, bleomycin
  IC50: 7.0 µg/mL
8226/I-R myeloma cells; 8226/I-R, MTT, bleomycin
  IC50: 7.8 µg/mL
8226/I-R myeloma cells; MTT
  Cross-resistance of imexon-resistant cells: remains sensitive
8226/I-R myeloma cells; Table 4, 8226/I-R vs 8226/S
  Fold Resistance (IC50 resistant cells/IC50 sensitive cells): 1.11
